In patent US12473304B2, “Heterocyclic PAD4 inhibitors” (BRISTOL-MYERS SQUIBB COMPANY, priority 2020, dated 2025):

Target: human PAD4 (hPAD4) (Homo sapiens (Human), UniProt Q9UM07)
Assay: RFMS Human PAD4 Functional Assay 1
Assay type: biochemical
Conditions: RFMS assay 1; 5 nM hPAD4, 250 μM BAEE substrate, 50 μM calcium, 37° C.
In short: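 Citrullination product read by RapidFire triple-quad MRM against a modified-citrulline internal standard, after TCA stop and 30 min phenyl glyoxal step at 37 °C. Reaction: 250 μM BAEE, 5 nM human PAD4, 90 min at 37 °C, pH 7.5 HEPES buffer with 50 μM calcium and 5 μM TPEN, following 30 min compound–enzyme preincubation (max 50 μM).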

human PAD4 (hPAD4), sequence (Q9UM07 whole entry): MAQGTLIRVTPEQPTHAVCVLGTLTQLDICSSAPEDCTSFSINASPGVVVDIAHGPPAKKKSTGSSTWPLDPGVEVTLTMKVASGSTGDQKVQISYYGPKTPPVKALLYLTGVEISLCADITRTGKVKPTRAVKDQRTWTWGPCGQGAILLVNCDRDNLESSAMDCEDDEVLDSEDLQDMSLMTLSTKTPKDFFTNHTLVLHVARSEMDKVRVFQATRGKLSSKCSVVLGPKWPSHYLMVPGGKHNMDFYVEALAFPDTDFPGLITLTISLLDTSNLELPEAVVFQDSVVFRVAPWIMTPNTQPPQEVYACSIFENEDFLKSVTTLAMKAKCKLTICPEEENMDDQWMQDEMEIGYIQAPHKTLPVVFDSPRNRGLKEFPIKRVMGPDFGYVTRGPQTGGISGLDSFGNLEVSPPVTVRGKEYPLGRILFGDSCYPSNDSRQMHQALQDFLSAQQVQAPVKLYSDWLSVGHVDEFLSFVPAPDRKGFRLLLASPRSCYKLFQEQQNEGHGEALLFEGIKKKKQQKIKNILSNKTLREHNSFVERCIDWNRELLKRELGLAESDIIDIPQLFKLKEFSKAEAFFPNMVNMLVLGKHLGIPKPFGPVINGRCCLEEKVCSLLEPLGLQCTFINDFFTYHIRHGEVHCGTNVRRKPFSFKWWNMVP

| SMILES | IC50 |
| --- | --- |
| Cc1c(-c2cc3cccc(C4CCN(C(=O)[C@H]5CC[C@H](O)CC5)CC4)c3n2CC2CC2)nn2cc(C(=O)N3C[C@H](N)C[C@@H](F)C3)ccc12 [Example 451, ((3R,5R)-3-amino-5-fluoropiperidin-1-yl)(2-(1-(cyclopropylmethyl)-7-(1-((1r,4r)-4-hydroxycyclohexane-1-carbonyl)piperidin-4-yl)-1H-indol-2-yl)-3-methylpyrazolo[1,5-a]pyridin-6-yl)methanone] | 10 nM |
| CC(=O)N1CCC(c2cccc3cc(-c4nn5cc(C(=O)N6C[C@H](N)C[C@@H](F)C6)ccc5c4C)n(CC4CC4)c23)CC1 [Example 452, 1-(4-(2-(6-((3R,5R)-3-amino-5-fluoropiperidine-1-carbonyl)-3-methylpyrazolo[1,5-a]pyridin-2-yl)-1-(cyclopropylmethyl)-1H-indol-7-yl)piperidin-1-yl)ethan-1-one] | 30 nM |
| COCC(=O)N1CCC(c2cccc3cc(-c4nn5cc(C(=O)N6CC7CCC6[C@@H]7N)ccc5c4C)n(CC4CC4)c23)CC1 (stereo partly drawn) [Example 453, 1-(4-(2-(6-((7R)-7-amino-2-azabicyclo[2.2.1]heptane-2-carbonyl)-3-methylpyrazolo[1,5-a]pyridin-2-yl)-1-(cyclopropylmethyl)-1H-indol-7-yl)piperidin-1-yl)-2-methoxyethan-1-one] | 10 nM |
| CO[C@@H](C)C(=O)N1CCC(c2cccc3cc(-c4nn5cc(C(=O)N6CCC[C@@H](N)C6)ccc5c4C)n(CC4CC4)c23)CC1 [Example 454, (S)-1-(4-(2-(6-((R)-3-aminopiperidine-1-carbonyl)-3-methylpyrazolo[1,5-a]pyridin-2-yl)-1-(cyclopropylmethyl)-1H-indol-7-yl)piperidin-1-yl)-2-methoxypropan-1-one] | 550 nM |
| COCC(=O)N1CCC(c2cccc3cc(-c4nn5cc(C(=O)N6CCC[C@@H](N)C6)ccc5c4C)n(CC4CC4)c23)CC1 [Example 455, (R)-1-(4-(2-(6-(3-aminopiperidine-1-carbonyl)-3-methylpyrazolo[1,5-a]pyridin-2-yl)-1-(cyclopropylmethyl)-1H-indol-7-yl)piperidin-1-yl)-2-methoxyethan-1-one] | 270 nM |
| CO[C@@H](C)C(=O)N1CCC(c2cccc3cc(-c4nn5cc(C(=O)N6C[C@H](N)C[C@@H](F)C6)ccc5c4C)n(CC4CC4)c23)CC1 [Example 459, (S)-1-(4-(2-(6-((3R,5R)-3-amino-5-fluoropiperidine-1-carbonyl)-3-methylpyrazolo[1,5-a]pyridin-2-yl)-1-(cyclopropylmethyl)-1H-indol-7-yl)piperidin-1-yl)-2-methoxypropan-1-one] | 140 nM |
| CO[C@H](C)C(=O)N1CCC(c2cccc3cc(-c4nn5cc(C(=O)N6CCC[C@@H](N)C6)ccc5c4C)n(CC4CC4)c23)CC1 [Example 460, (R)-1-(4-(2-(6-((R)-3-aminopiperidine-1-carbonyl)-3-methylpyrazolo[1,5-a]pyridin-2-yl)-1-(cyclopropylmethyl)-1H-indol-7-yl)piperidin-1-yl)-2-methoxypropan-1-one] | 70 nM |
| CO[C@H](C)C(=O)N1CCC(c2cccc3cc(-c4nn5cc(C(=O)N6C[C@H](N)C[C@@H](F)C6)ccc5c4C)n(CC4CC4)c23)CC1 [Example 461, (R)-1-(4-(2-(6-((3R,5R)-3-amino-5-fluoropiperidine-1-carbonyl)-3-methylpyrazolo[1,5-a]pyridin-2-yl)-1-(cyclopropylmethyl)-1H-indol-7-yl)piperidin-1-yl)-2-methoxypropan-1-one] | 80 nM |
| Cc1c(-c2cc3cccc(C4CCN(C(=O)c5cccs5)CC4)c3n2CC2CC2)nn2cc(C(=O)N3CCC[C@@H](N)C3)ccc12 [Example 464, (R)-(3-aminopiperidin-1-yl)(2-(1-(cyclopropylmethyl)-7-(1-(thiophene-2-carbonyl)piperidin-4-yl)-1H-indol-2-yl)-3-methylpyrazolo[1,5-a]pyridin-6-yl)methanone] | 180 nM |
| COC(=O)N1CCC(c2cccc3cc(-c4nn5cc(C(=O)N6CCC[C@@H](N)C6)ccc5c4C)n(CC4CC4)c23)CC1 [Example 468, Methyl (R)-4-(2-(6-(3-aminopiperidine-1-carbonyl)-3-methylpyrazolo[1,5-a]pyridin-2-yl)-1-(cyclopropylmethyl)-1H-indol-7-yl)piperidine-1-carboxylate] | 100 nM |
| COC(=O)N1CCC(c2cccc3cc(-c4nn5cc(C(=O)N6C[C@H](N)C[C@@H](F)C6)ccc5c4C)n(CC4CC4)c23)CC1 [Example 469, Methyl 4-(2-(6-((3R,5R)-3-amino-5-fluoropiperidine-1-carbonyl)-3-methylpyrazolo[1,5-a]pyridin-2-yl)-1-(cyclopropylmethyl)-1H-indol-7-yl)piperidine-1-carboxylate] | 180 nM |
| COC(=O)N1CCC(c2cccc3cc(-c4nn5cc(C(=O)N6CC7CCC6[C@@H]7N)ccc5c4C)n(CC4CC4)c23)CC1 (stereo partly drawn) [Example 470, Methyl 4-(2-(6-((7R)-7-amino-2-azabicyclo[2.2.1]heptane-2-carbonyl)-3-methylpyrazolo[1,5-a]pyridin-2-yl)-1-(cyclopropylmethyl)-1H-indol-7-yl)piperidine-1-carboxylate] | 10 nM |
| Cc1c(-c2cc3cccc(C4CCN(C(=O)[C@@H](C)O)CC4)c3n2CC2CC2)nn2cc(C(=O)N3CCC[C@@H](N)C3)ccc12 [Example 471, (R)-1-(4-(2-(6-((R)-3-aminopiperidine-1-carbonyl)-3-methylpyrazolo[1,5-a]pyridin-2-yl)-1-(cyclopropylmethyl)-1H-indol-7-yl)piperidin-1-yl)-2-hydroxypropan-1-one] | 90 nM |
| Cc1c(-c2cc3cccc(C4CCN(C(=O)[C@@H](C)O)CC4)c3n2CC2CC2)nn2cc(C(=O)N3C[C@H](N)C[C@@H](F)C3)ccc12 [Example 472, (R)-1-(4-(2-(6-((3R,5R)-3-amino-5-fluoropiperidine-1-carbonyl)-3-methylpyrazolo[1,5-a]pyridin-2-yl)-1-(cyclopropylmethyl)-1H-indol-7-yl)piperidin-1-yl)-2-hydroxypropan-1-one] | 60 nM |
| Cc1c(-c2cc3cccc(C4CCN(C(=O)[C@@H](C)O)CC4)c3n2CC2CC2)nn2cc(C(=O)N3CC4CCC3[C@@H]4N)ccc12 (stereo partly drawn) [Example 473, (2R)-1-(4-(2-(6-((7R)-7-Amino-2-azabicyclo[2.2.1]heptane-2-carbonyl)-3-methylpyrazolo[1,5-a]pyridin-2-yl)-1-(cyclopropylmethyl)-1H-indol-7-yl)piperidin-1-yl)-2-hydroxypropan-1-one] | 3 nM |
| Cc1c(-c2cc3cccc(C4CCN(C(=O)c5cccs5)CC4)c3n2CC2CC2)nn2cc(C(=O)N3C[C@H](N)C[C@@H](F)C3)ccc12 [Example 474, ((3R,5R)-3-Amino-5-fluoropiperidin-1-yl)(2-(1-(cyclopropylmethyl)-7-(1-(thiophene-2-carbonyl)piperidin-4-yl)-1H-indol-2-yl)-3-methylpyrazolo[1,5-a]pyridin-6-yl)methanone] | 70 nM |
| Cc1c(-c2cc3cccc(C4CCN(C(=O)c5cccs5)CC4)c3n2CC2CC2)nn2cc(C(=O)N3CC4CCC3[C@@H]4N)ccc12 (stereo partly drawn) [Example 475, (4-(2-(6-((7R)-7-Amino-2-azabicyclo[2.2.1]heptane-2-carbonyl)-3-methylpyrazolo[1,5-a]pyridin-2-yl)-1-(cyclopropylmethyl)-1H-indol-7-yl)piperidin-1-yl)(thiophen-2-yl)methanone] | 20 nM |
| CC(=O)N1CCC(c2cccc3cc(-c4nn5cc(C(=O)N6CC7CCC6[C@@H]7N)ccc5c4C)n(CC4CC4)c23)CC1 (stereo partly drawn) [Example 477, 1-(4-(2-(6-((7R)-7-Amino-2-azabicyclo[2.2.1]heptane-2-carbonyl)-3-methylpyrazolo[1,5-a]pyridin-2-yl)-1-(cyclopropylmethyl)-1H-indol-7-yl)piperidin-1-yl)ethan-1-one] | 20 nM |
| COCC(=O)N1CCC(c2cccc3cc(-c4nn5cc(C(=O)N6C[C@H](N)C[C@@H](F)C6)ccc5c4C)n(CC4CC4)c23)CC1 [Example 478, 1-(4-(2-(6-((3R,5R)-3-Amino-5-fluoropiperidine-1-carbonyl)-3-methylpyrazolo[1,5-a]pyridin-2-yl)-1-(cyclopropylmethyl)-1H-indol-7-yl)piperidin-1-yl)-2-methoxyethan-1-one] | 130 nM |
| CC(=O)N1CCC(c2cccc3cc(-c4nn5cc(C(=O)N6CCC[C@@H](N)C6)ccc5c4C)n(CC4CC4)c23)CC1 [Example 479, (R)-1-(4-(2-(6-(3-Aminopiperidine-1-carbonyl)-3-methylpyrazolo[1,5-a]pyridin-2-yl)-1-(cyclopropylmethyl)-1H-indol-7-yl)piperidin-1-yl)ethan-1-one] | 390 nM |
| COCC(=O)N1CCC(c2cc(F)cc3cc(-c4nn5cc(C(=O)N6CCC[C@@H](N)C6)cc(OC)c5c4C)n(CC4CC4)c23)CC1 [Example 480, (R)-1-(4-(2-(6-(3-aminopiperidine-1-carbonyl)-4-methoxy-3-methylpyrazolo[1,5-a]pyridin-2-yl)-1-(cyclopropylmethyl)-5-fluoro-1H-indol-7-yl)piperidin-1-yl)-2-Methoxyethan-1-one] | 140 nM |
| COCC(=O)N1CCC(c2cc(F)cc3cc(-c4nn5cc(C(=O)N6C[C@H](N)C[C@@H](F)C6)cc(OC)c5c4C)n(CC4CC4)c23)CC1 [Example 481, 1-(4-(2-(6-((3R,5R)-3-Amino-5-fluoropiperidine-1-carbonyl)-4-methoxy-3-methylpyrazolo[1,5-a]pyridin-2-yl)-1-(cyclopropylmethyl)-5-fluoro-1H-indol-7-yl)piperidin-1-yl)-2-methoxyethan-1-one] | 120 nM |
| COc1cc(C(=O)N2C[C@H](N)C[C@@H](F)C2)cn2nc(-c3cc4cc(F)cc(C5CCN(C(C)=O)CC5)c4n3CC3CC3)c(C)c12 [Example 482, 1-(4-(2-(6-((3R,5R)-3-Amino-5-fluoropiperidine-1-carbonyl)-4-methoxy-3-methylpyrazolo[1,5-a]pyridin-2-yl)-1-(cyclopropylmethyl)-5-fluoro-1H-indol-7-yl)piperidin-1-yl)ethan-1-one] | 60 nM |
